Assay [1] relates to Fusarium oxysporum f. sp. lycopersici (isolate FP-7) spores. In words: Fusarium tetrazolium (MTT) spore viability assay. In kind it is cell-based. The following applies: for concentration giving elimination of viable cells: 24 hr exposure, absorbance at 570 nm; for cell viability result compared with Benlate control: tetrazolium cell viability test. How it is done:
(§1) The suspension was then standardized using a Beckman spectrophotometer (430 nm), which has been calibrated using a CDB blank. […] Suspensions were incubated for 24 hr at 28° C. A 10% stock solution of MTT was then added to each aliquot. The suspensions were allowed to incubate for 4 hr, then pelleted, drained, rinsed, and treated with 95% ethanol. The color change, which correlates with spore viability, was assessed using the Beckman spectrophotometer (570 nm), calibrated with 95% ethanol. Benlate (benomyl) was used as an industry standard control. Each treatment was replicated six times and the assay for each compound was repeated. […] A mycelial plug of (cork bore size #3) Fusarium oxysporum f. sp. lycopersici (isolate FP-7) from a 7-day old culture was placed at the center of the plate and the radial growth of the fungus was measured for 7-10 days. Each treatment was replicated six times and the assay for each compound was repeated. Regression analysis was performed using Sigma Plot 2000.
(§2) The tetrazolium assay is based on a color change produced with a vital stain on living tissue, i.e. the lower the absorbance, the fewer viable cells.

Assay [2] has as its system Fusarium oxysporum f. sp. lycopersici (isolate FP-7). Briefly: Fusarium petri plate (PDA) assay, radial growth. In kind it is cell-based. The following applies: for fungal growth elimination compared with Benlate control: PDA-based assay. The protocol:
as §1, §2

Assay [3] concerns purple nutsedge (Cyperus rotundus) tubers. In words: Nutsedge greenhouse assay, soil drench on tubers in pots. The following applies: 100 ml soil drench, tarped 7 days, shoots counted 60 days. In kind it is in vivo. How it is done: Herbicide Screen: Each candidate compound was tested on seeds of smooth pigweed (Amaranthus hybridus) and barnyard grass (Echinocloa crus-galli), and on tubers of purple nutsedge (Cyperus rotundus) by exposing seeds or tubers to a specific concentration of the test compound. Seeds were surface sterilized and 20 seeds placed on sterile filter paper (Whatman #5) in a 10-cm petri plate for each of six replicates for each weed species tested. Twenty ml of compound of concentrations ranging from 0 ppm (sterile water control) to 2000 ppm was added to the petri dishes. Plates were stored at 30° C. in an dark incubator. Seed germination was monitored at 24 hr intervals for 30 days. Petri plate bioassays were repeated twice for each compound. Field collected purple nutsedge tubers were placed in 500 g of field soil with soil moisture adjusted to 5%. Five nutsedge tubers were planted in each 10-cm pot at a depth of 2.5 cm. Six replicate pots of each concentration, ranging from 0 ppm (water control) to 2000 ppm, will be treated using 100 ml as a soil drench. Pots were tarped with co-extruded black-on-white polyethylene mulch for 7 days. After tarps were removed, the number of emerged nutsedge shoots was recorded on a weekly basis for 60 days.

Assay [4] has as its system nutsedge (Cyperus esculentus and C. rotundus). In words: Field study, weed biomass emerging through the plastic mulch. In kind it is in vivo. The following applies: pre-plant, tomato field, Florida.
For assay [5], the system named is native weed population (weeds in the plant hole). Briefly: Field study, weed biomass emerging in the planting hole. The following applies: pre-plant, tomato field, Florida. In kind it is in vivo.
Assay [6] has as its system root knot nematode Meloidogyne sp. Briefly: Field study, root knot nematode root galling on tomato. The following applies: 600 and 800 lb per acre, assessed at harvest; population unevenly distributed. In kind it is in vivo.

As for `CCCCNC(=O)n1c(NC(=O)OC)nc2ccccc21` [Benlate, benomyl, reference compound], in assay [1], the “concentration giving elimination of viable cells” value (“concentration giving elimination” below) is on record as 100 ppm.
Regarding `NC(=O)CBr` [bromoacetamide, 2-bromoacetamide], the “fungal growth elimination compared with Benlate control” value in assay [2] is recorded as “significantly better than the Benlate control”. In addition, in assay [1], the “concentration giving elimination” value is 100 ppm and the “cell viability result compared with Benlate control” value is recorded as “comparable to a Benlate control”. Besides, the “concentration eliminating germination of nutsedge” value in assay [3] is given as at least 1000 ppm.
For `O=C(O)CBr` [bromoacetic acid], in assay [2], the “fungal growth elimination compared with Benlate control” value is recorded as “significantly better than the Benlate control”. The “control of nutsedge emerging through the plastic versus methyl bromide” value in assay [4] (600 lb per acre) is given as “as effective as methyl bromide”. Also, in assay [4] (800 lb per acre), the “control of nutsedge emerging through the plastic (fresh and dry weight) versus methyl bromide” value is listed as “as effective as methyl bromide”. Also, the “control of weeds in the plant hole versus methyl bromide” value in assay [5] (600 lb per acre) is reported as “not as effective”. Moreover, the “control of weeds emerging in the plant hole (fresh and dry weight) versus methyl bromide” value in assay [5] (800 lb per acre) is recorded as “as effective as methyl bromide”. For the same compound, the “root knot nematode control (root galling, scale 0-10) versus untreated check” value in assay [6] was “not statistically significantly different from the untreated check”.
In the case of `NC(=O)CI` [iodoacetamide, 2-iodoacetamide], in assay [2], the “fungal growth elimination compared with Benlate control” value is on record as “significantly better than the Benlate control”. Moreover, in assay [1], the “concentration giving elimination” value is 100 ppm and the “cell viability result compared with Benlate control” value is “comparable to a Benlate control”.
For `O=C(O)CI` [iodoacetic acid], the “fungal growth elimination compared with Benlate control” value in assay [2] was “comparable to the Benalte control”. In assay [2] (compound in potato dextrose agar, radial growth measured 7-10 days), the “concentration at which fungal growth was eliminated” value was at least 500 ppm.

The values above are taken from patent US20040242697A1, “Methods of reducing pests by use of iodoacetic acid, bromoacetic acid, 2-iodoacetamide, or 2-bromoacetamide” (priority 2003, published 2004).
